# Assays:
# [1] = system: retinal ganglion cell axons; assay: Protection of retinal ganglion cell axons from degeneration following optic nerve transection (Table V); format: in vivo; details: ± SEM
# Excerpt: Efficacy of representative compounds from different immunophilin ligand series in protecting retinal ganglion cell axons from degeneration following optic nerve transection is set forth in Table V.
# [2] = Clearance (Table V comments); format: in vitro ADME
# [3] = target: FKBP12 (Homo sapiens, UniProt P62942); assay: Ki test: inhibition of peptidyl-prolyl isomerase (rotamase) activity of FKBP; format: biochemical; details: apparent Ki; read-out: Ki rotomase
# Sequence of FKBP12 (P62942 whole entry, species assumed): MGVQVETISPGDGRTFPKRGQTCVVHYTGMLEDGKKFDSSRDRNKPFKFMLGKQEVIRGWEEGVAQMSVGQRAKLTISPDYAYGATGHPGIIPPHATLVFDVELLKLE
# Excerpt: The inhibition of the prolyl peptidyl cis-trans isomerase activity of FKBP may be measured as an indicator of this affinity.
# These values are obtained as apparent Ki's.
# The cis-trans isomerization of an alanine-proline bond in a model substrate, N-succinyl-Ala-Ala-Pro-Phe-p-nitroanilide, is monitored spectrophotometrically in a chymotrypsin-coupled assay, which releases para-nitroanilide from the trans form of the substrate. The inhibition of this reaction caused by the addition of different concentrations of inhibitor is determined, and the data is analyzed as a change in first-order rate constant as a function of inhibitor concentration to yield the apparent Ki values.
# In a plastic cuvette are added 950 ml of ice cold assay buffer (25 mM HEPES, pH 7.8, 100 nM NaCl), 10 ml of FKBP (2.5 mM in 10 mM Tris-Cl pH 7.5, 100 mM NaCl, 1 mM dithiothreitol), 25 ml of chymotrypsin (50 mg/ml in 1 mM HCl) and 10 ml of test compound at various concentrations in dimethyl sulfoxide. The reaction is initiated by the addition of 5 ml of substrate (succinyl-Ala-Phe-Pro-Phe-para-nitroanilide, 5 mg/ml in 2.35 mM LiCl in trifluoroethanol).
# The absorbance at 390 nm versus time is monitored for 90 seconds using a spectrophotometer and the rate constants are determined from the absorbance versus time data files.
# [4] = system: retinal ganglion cells, optic nerve axons and myelin; assay: Retinal ischemia by raised intraocular pressure; format: in vivo, rats; details: 28 days after 1 hour retinal ischemia
# Excerpt: Retinal ganglion cells were retrogradely labeled in adult rats by bilateral injection of fluorogold in their lateral geniculate nuclei. Labeled ganglion cells in the normal rat retina appear as white profiles against the dark background (FIG. 1A). Complete retinal ischemia was produced by infusing normal saline solution into the retinal vitreous cavity of each eye until the intraocular pressure exceeded arterial blood pressure. 28 days after the ischemic episode extensive degeneration of retinal ganglion cell was evidenced by massive reduction in the density of fluorogold labeled cells (FIG. 1B).
# Optic nerves from vehicle treated cases examined 28 days after a 1 hour retinal ischemia episode are characterized by a decreased density of optic nerve axons and the appearance of numerous degenerating myelin figures (bright white filled circles).
# [5] = system: retina; assay: Streptozotocin induced diabetes, retinal neovascularization and neuron loss; format: in vivo; details: 28 day treatment beginning 8 weeks after onset of streptozotocin diabetes
# [6] = system: retinal ganglion cells and optic nerve axons; assay: In vivo retinal ganglion cell and optic nerve axon tests after optic nerve transection (Table 1); design: species or system Sprague Dawley rats; details: 90 days after optic nerve transection
# Excerpt: All eyes and optic nerve stumps were removed.
# [7] = system: retinal ganglion cells; assay: Example 18: optic nerve transection, ganglion cell survival and axonal dying back; format: in vivo, Sprague Dawley rats; details: 10 mg/kg/day s.c. for 28 days; 90 days after transection
# Excerpt: Transection of the mammalian optic nerve results in a brief period of abortive regeneration, but the majority of axotomized neurons die and the axons from many persisting ganglion cells die back beyond the optic nerve head.
# [8] = Morris watermaze spatial learning and memory in aged rodents; format: in vivo, C57BL/6N-Nia mice; details: aged impaired mice, 10 mg/kg daily, after 3 weeks of dosing; vs young mice
# Excerpt: The Morris watermaze is widely used for assessing spatial memory formation and retention in experimental animals. The test depends on the animal's ability to utilize spatial visual information in order to locate a submerged escape platform in a water tank. It is important that the tank itself be as devoid of specific visual features as possible—thus, it is always circular in shape, the sides are kept smooth and in uniform dull colors, and the water is rendered opaque with nontoxic watercolor pigment or powdered milk. This is to ensure that the animal navigates only by the use of more distant visual cues, or by the use of intra-maze cues specifically provided by the experimenter.
# The animals' path, speed, and swim time are tracked with a ceiling camera for later computerized analysis. Over the course of several successive trials, spatial learning can therefore be defined as a drop of distance swum, or time elapsed, from placement in the tank until escape onto the invisible platform. […]
# Retention testing began after 3 weeks of dosing using the same methods as the acquisition phase. Swim Distances (cm) were analyzed in a 7×5 ANOVA including Groups and Blocks (1-5) as factors in the analysis, treating Blocks as a repeated measure.
smiles,measurement,setting,value
O=C(SCCCc1ccccc1)C1CCCN1C(=O)NC12CC3CC(CC(C3)C1)C2 (stereo not shown) [B],RT-RGC azon density 11 days after ON Transection ( axon rescued),[1],100.0% ±5.2% SEM
O=C(SCCCc1ccccc1)[C@@H]1CCCN1S(=O)(=O)Cc1ccccc1 [C],RT-RGC azon density 11 days after ON Transection ( axon rescued),[1],60.4% ±3.1% SEM
O=C(OCCCCc1ccccc1)[C@@H]1CCCCN1S(=O)(=O)Cc1ccccc1 [D],RT-RGC azon density 11 days after ON Transection ( axon rescued),[1],58.4% ±6.4% SEM
CCC(C)(C)C(=O)C(=O)N1CCCC[C@H]1C(=O)SC(CCc1ccccc1)CCc1ccccc1 [E],Clearance,[2],41.8 µL/min
same,RT-RGC azon density 11 days after ON Transection ( axon rescued),[1],56.6% ±9.4% SEM
same,Ki,[3],20 nM
CCC(C)(C)C(=O)C(=O)N1CCS[C@H]1C(=O)OCCCc1cccnc1 [F],RT-RGC azon density 11 days after ON Transection ( axon rescued),[1],55.1% ±5.9% SEM
CCC(C)(C)C(=O)C(=O)N1CCC[C@H]1C(=O)OCCCc1cccnc1 [GPI 1046],protection of optic nerve axons from degeneration,[4],protected the majority of optic nerve axons from degeneration
same,RT-RGC azon density 11 days after ON Transection ( axon rescued),[1],60.5% ±3.9 SEM
same,loss of neurons in INL and GCL,[5],appeared to decrease the loss of neurons
same,"neovascularization in PR, ONL, OPL and INL of retina",[5],reduced neovascularization
same,neuronal loss in the ONL,[5],did not appear to protect
same,RGC Counts (mean density + SEM of Fluoro-gold labeled retinal ganglion cells in 400 μm × 400 μm gridfields),[6]; 10 mg/kg/day sc for 28 days,67.9 ± 5.8
same,increased ON axon density (adjusted for optic nerve diameter),[6]; 14 days treatment,1.5X
same,increased ON axon density (adjusted for optic nerve diameter),[6]; 28 days treatment,5.0X
same,Ki,[3],7.5 nM
same,ganglion cell population spared,[7],25%
same,preservation of axons of protected neurons in proximal stump,[7],preserved the axons of virtually all protected neurons
same,"difference between young and aged impaired GPI-1046 treated groups, retention phase",[8],no longer any statistically significant difference
CCC(C)(C)C(=O)C(=O)N1CCCC[C@H]1C(=O)O [G],RT-RGC azon density 11 days after ON Transection ( axon rescued),[1],34.0% ±4.8% SEM
CCC(C)(C)C(=O)C(=O)N1CCCC[C@H]1C(N)=O [H],RT-RGC azon density 11 days after ON Transection ( axon rescued),[1],30.3% ±8.0% SEM
CCC(C)(C)C(=O)C(=O)N1CCC[C@H]1C(=O)CCCCc1cccnc1 [J],RT-RGC azon density 11 days after ON Transection ( axon rescued),[1],15.8% ±4.8% SEM
CCC(C)(C)C(=O)C(=O)N1CCCC[C@H]1C(=O)SCCC(c1ccccc1)c1ccccc1 [K],RT-RGC azon density 11 days after ON Transection ( axon rescued),[1],13.0% ±4.2% SEM
CCC(C)(C)C(=O)C(=O)N1CCC[C@H]1C(=O)O [L],RT-RGC azon density 11 days after ON Transection ( axon rescued),[1],7.8% ±3.0% SEM
CCC(C)(C)C(=O)C(=O)N1CCC[C@H]1C(=O)SCCC(c1ccccc1)c1ccccc1 [M],RT-RGC azon density 11 days after ON Transection ( axon rescued),[1],−6.3% +3.9% SEM

# Source: US6339101B1, “N-linked sulfonamides of N-heterocyclic carboxylic acids or isosteres for vision and memory disorders” (GPI NIL Holdings, Inc., priority 1998, dated 2002)
